Laboratory results as given in patent publication US20150126545A1, “COMPOSITIONS CONTAINING KINASE INHIBITORS” (AbbVie Inc., priority 2011, published 2015).
Converted amounts (≈) assume the structure as drawn.

Tests used:
[1] = Solubility of free base in various media; assay type: physicochemical
Text: Solubility of N-(4-{4-amino-7-[1-(2-hydroxyethyl)-1H-pyrazol-4-yl]thieno[3,2-c]pyridin-3-yl}phenyl)-N′-(3-fluorophenyl)urea Free Base in Various Media

[2] = Solubility of free base in PEG-300/Cremophor EL/Ethanol vehicles; assay type: physicochemical
Text: Solubility of N-(4-{4-amino-7-[1-(2-hydroxyethyl)-1H-pyrazol-4-yl]thieno[3,2-c]pyridin-3-yl}phenyl)-N′-(3-fluorophenyl)urea Free Base in PEG-300/Cremophor EL/Ethanol Vehicles

[3] = Pharmacokinetics of IV formulation in humans (Phase I, advanced solid tumors); assay type: in vivo; conditions: human, plasma, IV infusion approx. 2 hour
Text: IV formulations of the invention were used in an open-label Phase I human study evaluating the safety and pharmacokinetics of N-(4-{4-amino-7-[1-(2-hydroxyethyl)-1H-pyrazol-4-yl]thieno[3,2-c]pyridin-3-yl}phenyl)-N′-(3-fluorophenyl)urea as monotherapy in subjects with advanced solid tumors, i.e., mixture of polyethylene glycol 300, polyoxyl 35 castor oil, and ethanol in a ratio of 45:45:10% w/w, and N-(4-{4-amino-7-[1-(2-hydroxyethyl)-1H-pyrazol-4-yl]thieno[3,2-c]pyridin-3-yl}phenyl)-N′-(3-fluorophenyl)urea, wherein the N-(4-{4-amino-7-[1-(2-hydroxyethyl)-1H-pyrazol-4-yl]thieno[3,2-c]pyridin-3-yl}phenyl)-N′-(3-fluorophenyl)urea is present in a concentration of about 6 mg/mL.
The number of subjects that entered the studies and completed at least a portion of the studies are noted. Subjects entered the study and were assigned to receive one of the following doses: 8 mg, 16 mg, or 32 mg.
Doses were administered on Day 1 and Day 15 of each 28 day cycle with an approximately 2 hour infusion. On Day 1 and Day 15, plasma samples are collected at time 0 (prior to infusion), 1 h 55 min (just before the end of the infusion), and at 0.5, 1, 2, 4, 6, 8, 10, 24 hours post the end of infusion. The plasma concentrations of N-(4-{4-amino-7-[1-(2-hydroxyethyl)-1H-pyrazol-4-yl]thieno[3,2-c]pyridin-3-yl}phenyl)-N′-(3-fluorophenyl)urea were determined, and the values for the pharmacokinetic parameters were calculated and shown in Table 7.

[4] = 8 mg, 8 mg, Study Day 1, mean ± SD, N 4
[5] = 8 mg, 8 mg, Study Day 15, mean ± SD, N 4
[6] = 16 mg, 16 mg, Study Day 15, N 1
[7] = 32 mg, 32 mg, Study Day 1, mean, N 2
[8] = 32 mg, 32 mg, Study Day 15, mean, N 2

Nc1ncc(-c2cnn(CCO)c2)c2scc(-c3ccc(NC(=O)Nc4cccc(F)c4)cc3)c12 [API, N-(4-{4-amino-7-[1-(2-hydroxyethyl)-1H-pyrazol-4-yl]thieno[3,2-c]pyridin-3-yl}phenyl)-N′-(3-fluorophenyl)urea]
solubility ([1]; 10% Cremophor EL in water, aqueous with cosolvent or surfactant or cyclodextrin, read-out: Solubility): 106 µg/mL (≈ 217 µM) | solubility ([1]; 10% Polysorbate 80 in water, aqueous with cosolvent or surfactant or cyclodextrin, read-out: Solubility): 146 µg/mL (≈ 299 µM) | solubility ([1]; 10% Solutol HS in water, aqueous with cosolvent or surfactant or cyclodextrin, read-out: Solubility): 152 µg/mL (≈ 311 µM) | solubility ([1]; Cremophor EL, organic solvent or mixture, Cremphor EL, read-out: Solubility): 7100 µg/mL (≈ 14500 µM) | solubility ([1]; DMA, organic solvent or mixture, read-out: Solubility): 35000 to 50000 µg/mL (≈ 71600 to 102000 µM) | solubility ([1]; Ethanol, organic solvent or mixture, read-out: Solubility): 130 µg/mL (≈ 266 µM) | solubility ([1]; PEG 300, organic solvent or mixture, read-out: Solubility): 20000 µg/mL (≈ 40900 µM) | solubility ([1]; PEG 400, organic solvent or mixture, read-out: Solubility): 20900 µg/mL (≈ 42800 µM) | solubility ([1]; Polysorbate 80, organic solvent or mixture, read-out: Solubility): 2500 µg/mL (≈ 5120 µM) | solubility ([1]; Propylene Glycol, organic solvent or mixture, read-out: Solubility): 1200 µg/mL (≈ 2460 µM) | solubility ([1]; Water (across physiological pH range), read-out: Solubility): < 0.03 µg/mL | solubility ([1]; water, pH 7.4, aqueous buffer, read-out: solubility in water): < 0.03 µg/mL | solubility ([2]; PEG-300/Cremophor EL/Ethanol 42.5/42.5/15, organic solvent or mixture, PEG-300/Cremophor EL/Ethanol ratio 42.5/42.5/15, 5° C., read-out: Solubility (mg/mL) at 5° C.): 11.9 mg/mL | solubility ([2]; PEG-300/Cremophor EL/Ethanol 42.5/42.5/15, organic solvent or mixture, PEG-300/Cremophor EL/Ethanol ratio 42.5/42.5/15, RT, read-out: Solubility (mg/mL) at RT): 10 mg/mL | solubility ([2]; PEG-300/Cremophor EL/Ethanol 45/45/10, organic solvent or mixture, PEG-300/Cremophor EL/Ethanol ratio 45/45/10, 5° C., read-out: Solubility (mg/mL) at 5° C.): 14.1 mg/mL | solubility ([2]; PEG-300/Cremophor EL/Ethanol 45/45/10, organic solvent or mixture, PEG-300/Cremophor EL/Ethanol ratio 45/45/10, RT, read-out: Solubility (mg/mL) at RT): 11.6 mg/mL | solubility ([2]; PEG-300/Cremophor EL/Ethanol 47.5/47.5/5, organic solvent or mixture, PEG-300/Cremophor EL/Ethanol ratio 47.5/47.5/5, 5° C., read-out: Solubility (mg/mL) at 5° C.): 16.4 mg/mL | solubility ([2]; PEG-300/Cremophor EL/Ethanol 47.5/47.5/5, organic solvent or mixture, PEG-300/Cremophor EL/Ethanol ratio 47.5/47.5/5, RT, read-out: Solubility (mg/mL) at RT): 13 mg/mL | half-life ([3]; 8 mg, 8 mg, Study Day 1, harmonic mean ± pseudo SD, N 4): 10.7 ± 8.3 h | AUC(0-inf) [3, 4]: 2960 ± 1540 ng·h/mL | Cmax [3, 4]: 235 ± 82.1 ng/mL | Tmax [3, 4]: 1.9 h | half-life ([3]; 8 mg, 8 mg, Study Day 15, harmonic mean ± pseudo SD, N 4): 14.1 ± 7.4 h | AUC(0-inf) [3, 5]: 2940 ± 1630 ng·h/mL | Cmax [3, 5]: 246 ± 107 ng/mL | Tmax [3, 5]: 1.9 h | AUC(0-inf) ([3]; 16 mg, 16 mg, Study Day 1, N 1): 2350 ng·h/mL | Cmax ([3]; 16 mg, 16 mg, Study Day 1, N 1): 366 ng/mL | Tmax ([3]; 16 mg, 16 mg, Study Day 1, N 1): 2.5 h | half-life ([3]; 16 mg, 16 mg, Study Day 1, N 1): 9.8 h | AUC(0-inf) [3, 6]: 3690 ng·h/mL | Cmax [3, 6]: 736 ng/mL | Tmax [3, 6]: 1.9 h | half-life [3, 6]: 12.6 h | half-life ([3]; 32 mg, 32 mg, Study Day 1, harmonic mean, N 2): 8.9 h | AUC(0-inf) [3, 7]: 8730 ng·h/mL | Cmax [3, 7]: 1310 ng/mL | Tmax [3, 7]: 1.9 h | half-life ([3]; 32 mg, 32 mg, Study Day 15, harmonic mean, N 2): 11.3 h | AUC(0-inf) [3, 8]: 8620 ng·h/mL | Cmax [3, 8]: 1370 ng/mL | Tmax [3, 8]: 2.2 h
